US8431563B2 (priority 2010, dated 2013)
Where a name gives a salt, the structure may show the parent alone.

Columns and labels:
[1] = biological target: T1, GKRP (Glucokinase Regulatory Protein) with human His-hepatic GK (Homo sapiens, UniProt Q14397); assay: GKRP NADPH Coupled Assay; assay type: biochemical; settings: GK-GKRP EC50 (NADPH-coupled), indirect measure of glucose-6-phosphate, fluorescence; 1 μM GKRP (10×), 20 nM GK (5×)
T1 sequence (Q14397 1-625): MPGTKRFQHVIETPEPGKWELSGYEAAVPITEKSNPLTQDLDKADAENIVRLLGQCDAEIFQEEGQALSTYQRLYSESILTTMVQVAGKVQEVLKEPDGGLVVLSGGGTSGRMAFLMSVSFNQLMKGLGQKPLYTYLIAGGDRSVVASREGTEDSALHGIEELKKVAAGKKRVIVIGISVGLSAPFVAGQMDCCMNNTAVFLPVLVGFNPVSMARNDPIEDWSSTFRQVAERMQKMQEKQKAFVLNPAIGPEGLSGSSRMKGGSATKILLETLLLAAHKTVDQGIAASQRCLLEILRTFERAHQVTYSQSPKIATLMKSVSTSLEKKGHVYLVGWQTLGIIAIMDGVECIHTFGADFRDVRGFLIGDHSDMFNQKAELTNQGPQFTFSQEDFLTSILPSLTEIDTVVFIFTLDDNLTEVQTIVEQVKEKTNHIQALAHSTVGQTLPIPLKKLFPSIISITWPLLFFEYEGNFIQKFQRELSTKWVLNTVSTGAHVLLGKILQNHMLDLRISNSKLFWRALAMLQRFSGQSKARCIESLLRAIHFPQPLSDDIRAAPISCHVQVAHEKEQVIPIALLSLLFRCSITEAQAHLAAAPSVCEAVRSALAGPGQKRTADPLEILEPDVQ
Description: (§1) This assay is used to directly measure the formation of ^13C-glucose-6-phosphate from ^13C-glucose by liquid chromatography-mass spectrometry (LC MS/MS). Begin by preparing the following solutions: Compound Buffer (CB): 50 mM Tris, pH 7.5/4 mM MgCl2/6% DMSO/fresh 10 mM DTT from 1M frozen stock. Enzyme Buffer (EB): 50 mM Tris, pH 7.5/4 mM MgCl2/6% DMSO/fresh 0.1% BSA/fresh 0.01% Brij-35 (10% BSA and 1% Brij-35 stock). GK (Glucokinase) Working Stock (5×): Dilute human His-hepatic GK to 30 nM in EB buffer. […] After 30 minutes add 10 μl of GK Working Stock (5×). Re-seal the plate and incubate for another 30 minutes at room temperature while mixing. After the second 30 minutes, stop the reaction by the addition of 50 μl of 100% acetonitrile, seal, and mix for 5-10 minutes. Run 10 μl of this sample through the LC MS/MS (API 3200, Applied Biosystems Inc., Carlsbad, Calif.).
This assay is used as an indirect measure of glucose-6-phosphate (G6P) formed from glucose due to the enzymatic activity of glucokinase. Assay format is the same as for GKRP LC MS/MS Biochemical Assay with the following exceptions. GK Working Stock (5×): Dilute human His-hepatic GK to 20 nM in EB buffer. Stop & Detection Reagent (2×): Dilute β-nicotinamide adenine dinucleotide phosphate sodium salt (β-NADP) (Aldrich-Sigma, St. Louis, Mo.) to 2 mM from 100 mM stock (stock in 10 mM Tris, pH 9.2) and dilute glucose-6-phosphate dehydrogenase (Aldrich-Sigma, St. Louis, Mo.) to 0.04 Unit/μl from 10 Unit/μl (stock in 10 mM Tris pH 7.5/0.05% Brij-35) in 0.2 M Tris, pH 9.2/8% DMSO. After the initial 30 minute incubation add 10 μl of 20 nM GK diluted in EB (5×). Re-seal the plate and incubate for another 1 hour at room temperature while mixing. After 1 hour remove the seal and add 50 μl of Stop & Detection Reagent and incubate for 5 minutes at room temperature while mixing.

[2] = biological target: T1, GKRP (Glucokinase Regulatory Protein) with human His-hepatic GK; assay: GKRP LC MS/MS Biochemical Assay; settings: 13C-glucose-6-phosphate formation, 1 μM GKRP (10×), 30 nM GK (5×)
Description: GKRP LC MS/MS Biochemical Assay
as §1

[3] = biological target: T1, GKRP (Glucokinase Regulatory Protein) with human His-hepatic GK; assay: biochemical; settings: 13C-glucose-6-phosphate formation; 280 nM GKRP (10×), 30 nM GK (5×); read-out: GK-GKRP EC50 (LC MS/MS-2)
How it was run: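 Product formation, 13C-glucose-6-phosphate from 13C-glucose, was measured directly by LC MS/MS after acetonitrile quench. The GK reaction ran 30 min at room temperature in Tris pH 7.5 buffer with 4 mM MgCl2 and 6% DMSO. The 5× enzyme stock was 30 nM His-tagged human hepatic glucokinase.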

[4] = read-out: GK-GKRP EC50 (LC MS/MS)

CC(O)(c1ccc(N2CCN(S(=O)(=O)c3cccs3)C[C@@H]2Cc2ccccc2)cc1)C(F)(F)F (single isomer, unassigned) [Example 65 Peak #2]
EC50 [1]: 166 nM
EC50 ([2]; GK-GKRP EC50 (LC MS/MS)): 240 nM

COc1cccc(-c2cc(C(O)(C(F)(F)F)C(F)(F)F)ccc2N2CCN(S(=O)(=O)c3cccs3)CC2)c1 [Example 70, 1,1,1,3,3,3-hexafluoro-2-(3′-methoxy-6-(4-(2-thiophenylsulfonyl)-1-piperazinyl)-3-biphenylyl)-2-propanol trifluoroacetate]
EC50 [1]: 3340 nM
EC50 ([2]; GK-GKRP EC50 (LC MS/MS)): 1820 nM

C[C@H]1CN(S(=O)(=O)c2ccccc2)CCN1c1ccc(C(O)(C(F)(F)F)C(F)(F)F)cc1 [Example 12, 1,1,1,3,3,3-hexafluoro-2-(4-((2S)-2-methyl-4-(phenylsulfonyl)-1-piperazinyl)phenyl)-2-propanol]
EC50 [1]: 821 nM
EC50 ([2]; GK-GKRP EC50 (LC MS/MS)): 884 nM

CC(O)(c1ccc(N2CCN(S(=O)(=O)c3cccs3)CC2Cc2cccc(F)c2)cc1)C(F)(F)F (mixture of isomers) [Example 39, 1,1,1-trifluoro-2-(4-(2-(3-fluorobenzyl)-4-(2-thiophenylsulfonyl)-1-piperazinyl)phenyl)-2-propanol]
EC50 [1]: 802 nM
EC50 ([2]; GK-GKRP EC50 (LC MS/MS)): 1090 nM

O=S(=O)(c1cccs1)N1CCN(c2ccc(C(O)(C(F)(F)F)C(F)(F)F)cc2-c2cccc(F)c2)CC1 [Example 71, 1,1,1,3,3,3-hexafluoro-2-(3′-fluoro-6-(4-(2-thiophenylsulfonyl)-1-piperazinyl)-3-biphenylyl)-2-propanol]
EC50 [1]: 3670 nM
EC50 ([2]; GK-GKRP EC50 (LC MS/MS)): 1840 nM

O=S(=O)(c1cccs1)N1CCN(c2ccc(C(O)(CO)C(F)(F)F)cc2)[C@@H](Cc2ccccc2)C1 (single isomer, unassigned) [Example 68 Peak #2]
EC50 ([2]; GK-GKRP EC50 (LC MS/MS)): 94 nM

CC(O)(c1ccc(N2CCN(S(=O)(=O)c3cccs3)CC2COCc2cccnc2)cc1)C(F)(F)F (mixture of isomers) [Example 59, 1,1,1-trifluoro-2-(4-(2-((3-pyridinylmethoxy)methyl)-4-(2-thiophenylsulfonyl)-1-piperazinyl)phenyl)-2-propanol]
EC50 [1]: 4930 nM
EC50 ([2]; GK-GKRP EC50 (LC MS/MS)): 4930 nM

CC1CN(CC2CN(S(=O)(=O)c3cccs3)CCN2c2ccc(C(C)(O)C(F)(F)F)cc2)CCO1 (mixture of isomers) [Example 49, 1,1,1-trifluoro-2-(4-(2-((2-methyl-4-morpholinyl)methyl)-4-(2-thiophenylsulfonyl)-1-piperazinyl)phenyl)-2-propanol]
EC50 [1]: 647 nM
EC50 ([2]; GK-GKRP EC50 (LC MS/MS)): 707 nM

C[C@H]1CN(S(=O)(=O)c2cccs2)CCN1c1ccc(C(O)(CO)C(F)(F)F)cc1 (mixture of isomers) [Example 67, 2-(4-((2S)-2-methyl-4-(2-thiophenylsulfonyl)-1-piperazinyl)phenyl)-3,3,3-trifluoro-1,2-propanediol]
EC50 [2, 4]: 670 nM

C[C@H]1COCCN1C[C@H]1CN(S(=O)(=O)c2cccs2)CCN1c1ccc([C@@](C)(O)C(F)(F)F)cc1 [Example 45 Peak #2, 1,1,1-trifluoro-2-(4-((2S)-2-(((3S)-3-methyl-4-morpholinyl)methyl)-4-(2-thiophenylsulfonyl)-1-piperazinyl)phenyl)-2-propanol]
EC50 [1]: 68 nM
EC50 ([2]; GK-GKRP EC50 (LC MS/MS)): 71 nM

CC(O)(c1ccc(N2CCN(S(=O)(=O)c3cccs3)CC2CN2CC3CCC(C2)O3)cc1)C(F)(F)F (racemic) [Example 46, 1,1,1-trifluoro-2-(4-(2-(8-oxa-3-azabicyclo[3.2.1]oct-3-ylmethyl)-4-(2-thiophenylsulfonyl)-1-piperazinyl)phenyl)-2-propanol]
EC50 [1]: 154 nM
EC50 ([2]; GK-GKRP EC50 (LC MS/MS)): 178 nM

O=S(=O)(c1cccs1)N1CCN(c2ccc(C(O)(CO)C(F)(F)F)cc2)[C@@H](Cc2ccccc2)C1 (single isomer, unassigned) [Example 68 Peak #1]
EC50 ([2]; GK-GKRP EC50 (LC MS/MS)): 870 nM

CC(O)(c1ccc(-c2ccc(S(=O)(=O)c3ccccc3)c(Cl)c2)cc1)C(F)(F)F (racemic) [Example 19, 2-(3′-chloro-4′-(phenylsulfonyl)-4-biphenylyl)-1,1,1-trifluoro-2-propanol]
EC50 [1]: 3580 nM
EC50 ([2]; GK-GKRP EC50 (LC MS/MS)): 4230 nM

O=S(=O)(c1ccsc1)N1CCN(c2ccc(C(O)(C(F)(F)F)C(F)(F)F)cc2)CC1 [Example 3, 1,1,1,3,3,3-hexafluoro-2-(4-(4-(3-thiophenylsulfonyl)-1-piperazinyl)phenyl)-2-propanol]
EC50 [1]: 597 nM
EC50 ([2]; GK-GKRP EC50 (LC MS/MS)): 964 nM

O=S(=O)(c1ccccc1)N1CCN(c2ncc(C(O)(C(F)(F)F)C(F)(F)F)cn2)CC1 [Example 23, 1,1,1,3,3,3-hexafluoro-2-(2-(4-(phenylsulfonyl)-1-piperazinyl)-5-pyrimidinyl)-2-propanol]
EC50 ([2]; GK-GKRP EC50 (LC MS/MS)): 1310 nM

CC(O)(c1ccc(N2CCN(S(=O)(=O)c3cccs3)CC2Cc2ccc(F)cc2)cc1)C(F)(F)F (mixture of isomers) [Example 40, 1,1,1-trifluoro-2-(4-(2-(4-fluorobenzyl)-4-(2-thiophenylsulfonyl)-1-piperazinyl)phenyl)-2-propanol]
EC50 [1]: 895 nM
EC50 ([2]; GK-GKRP EC50 (LC MS/MS)): 1250 nM

CC(O)(c1ccc(N2CCN(S(=O)(=O)c3cccs3)C[C@@H]2Cn2ccnc2)cc1)C(F)(F)F (mixture of isomers) [Example 170, 2-(4-((S)-2-((1H-imidazol-1-yl)methyl)-4-(thiophen-2-ylsulfonyl)piperazin-1-yl)phenyl)-1,1,1-trifluoro-2-propanol]
EC50 [1]: 762 nM
EC50 [3]: 942 nM

O=S(=O)(c1cccs1)N1CCN(c2ccc(C(O)(CO)C(F)(F)F)cc2)CC1 (single isomer, unassigned) [Example 66 Peak #2, 3,3,3-trifluoro-2-(4-(4-(2-thiophenylsulfonyl)-1-piperazinyl)phenyl)-1,2-propanediol]
EC50 [2, 4]: 1260 nM

O=S(=O)(c1cccs1)N1CCN(c2ccc(C(O)(CO)C(F)(F)F)cc2)CC1 (single isomer, unassigned) [Example 66 Peak #1, 3,3,3-trifluoro-2-(4-(4-(2-thiophenylsulfonyl)-1-piperazinyl)phenyl)-1,2-propanediol]
EC50 [2, 4]: 4430 nM

CC(O)(c1ccc(N2CCN(S(=O)(=O)c3nccs3)CC2)cc1)C(F)(F)F (racemic) [Example 32, 1,1,1-trifluoro-2-(4-(4-(1,3-thiazol-2-ylsulfonyl)-1-piperazinyl)phenyl)-2-propanol trifluoroacetate]
EC50 ([2]; GK-GKRP EC50 (LC MS/MS)): 4750 nM

CC(O)(c1ccc(N2CCN(S(=O)(=O)c3ccccc3)CC2)cc1)C(F)(F)F (single isomer, unassigned) [Example 24 Peak #2, 1,1,1-trifluoro-2-(4-(4-(phenylsulfonyl)-1-piperazinyl)phenyl)-2-propanol]
EC50 ([2]; GK-GKRP EC50 (LC MS/MS)): 3010 nM

C[C@H]1COCCN1C[C@H]1CN(S(=O)(=O)c2ccc(N)nc2)CCN1c1ccc(C(O)(C(F)(F)F)C(F)(F)F)cc1 [Example 124, 2-(4-((2S)-4-((6-amino-3-pyridinyl)sulfonyl)-2-(((3S)-3-methyl-4-morpholinyl)methyl)-1-piperazinyl)phenyl)-1,1,1,3,3,3-hexafluoro-2-propanol]
EC50 [1]: 1 nM
EC50 [3]: 18 nM
